Results taken from patent US8404720B2, “Aryl sulfonamide amine compounds and their use as 5-HT6 ligands” (Suven Life Sciences Limited, priority 2008, dated 2013).

Test system: Male Wister rats
Assay: Object Recognition Task Model
Assay type: in vivo
Conditions: rat, 3 mg/kg p.o., choice trial T2; first of two columns (sub-head not printed, presumably familiar object)
Experimental: The cognition-enhancing properties of compounds of this invention were estimated using a model of animal cognition: the object recognition task model.
Male Wister rats (230-280 grams) obtained from N. I. N. (National Institute of Nutrition, Hyderabad, India) was used as experimental animals. Four animals were housed in each cage. Animals were kept on 20% food deprivation before one day and given water ad libitum throughout the experiment and maintained on a 12 hours light/dark cycle. Also the rats were habituated to individual arenas for 1 hour in the absence of any objects.
One group of 12 rats received vehicle (1 mL/Kg) orally and another set of animals received compound of the formula (I) either orally or i.p., before one hour of the familiar (T1) and choice trial (T2).
The experiment was carried out in a 50×50×50 cm open field made up of acrylic. In the familiarization phase, (T1), the rats were placed individually in the open field for 3 minutes, in which two identical objects (plastic bottles, 12.5 cm height×5.5 cm diameter) covered in yellow masking tape alone (a1 and a2) were positioned in two adjacent corners, 10 cm. from the walls. After 24 hours of the (T1) trial for long-term memory test, the same rats were placed in the same arena as they were placed in T1 trial. Choice phase (T2) rats were allowed to explore the open field for 3 minutes in presence of one familiar object (a3) and one novel object (b) (Amber color glass bottle, 12 cm high and 5 cm in diameter). Familiar objects presented similar textures, colors and sizes. During the T1 and T2 trial, explorations of each object (defined as sniffing, licking, chewing or having moving vibrissae whilst directing the nose towards the object at a distance of less than 1 cm) were recorded separately by stopwatch. Sitting on an object was not regarded as exploratory activity, however, it was rarely observed.
T1 is the total time spent exploring the familiar objects (a1+a2).
T2 is the total time spent exploring the familiar object and novel object (a3+b).
The object recognition test was performed as described by Ennaceur, A., Delacour, J., A new one-trial test for neurobiological studies of memory in rats—Behavioural data, Behay. Brain Res., 1988, 31, 47-59.

`COc1ccc(NS(=O)(=O)c2ccc(F)cc2)cc1NC1CCN(C)CC1` [Example 6, 4-Fluoro-N-[4-Methoxy-3-(1-methylpiperidin-4-ylamino)phenyl] benzenesulfonamide] and `COc1ccc(NS(=O)(=O)c2ccccc2Br)cc1NC1CCN(C)CC1` [Example 8, 2-Bromo-N-[4-Methoxy-3-(1-methylpiperidin-4-ylamino)phenyl] benzenesulfonamide] are within error of each other in “Exploration time mean ± S.E.M (sec), first value column” value: 10.02 ± 1.54 s for the first, 6.72 ± 1.95 s for the second.

Same assay, conditions: rat, 3 mg/kg p.o., choice trial T2; second of two columns (sub-head not printed, presumably novel object)

Going from `COc1ccc(NS(=O)(=O)c2ccc(F)cc2)cc1NC1CCN(C)CC1` [Example 6, 4-Fluoro-N-[4-Methoxy-3-(1-methylpiperidin-4-ylamino)phenyl] benzenesulfonamide] to `COc1ccc(NS(=O)(=O)c2ccccc2Br)cc1NC1CCN(C)CC1` [Example 8, 2-Bromo-N-[4-Methoxy-3-(1-methylpiperidin-4-ylamino)phenyl] benzenesulfonamide], the “Exploration time mean ± S.E.M (sec), second value column” value falls from 15.27 ± 1.32 s to 9.58 ± 2.26 s.

Same assay, conditions: rat, 3 mg/kg p.o., object recognition task

With `COc1ccc(NS(=O)(=O)c2ccc(F)cc2)cc1NC1CCN(C)CC1` [Example 6, 4-Fluoro-N-[4-Methoxy-3-(1-methylpiperidin-4-ylamino)phenyl] benzenesulfonamide] the Inference was “Active”.
In the case of `COc1ccc(NS(=O)(=O)c2ccccc2Br)cc1NC1CCN(C)CC1` [Example 8, 2-Bromo-N-[4-Methoxy-3-(1-methylpiperidin-4-ylamino)phenyl] benzenesulfonamide], the Inference is reported as “Active”.

Test system: rats
Assay: Water Maze (scopolamine induced reversal)
Assay type: in vivo
Conditions: p.o.
Experimental: The water maze apparatus consisted of a circular pool (1.8 m diameter, 0.6 m high) constructed in black Perspex (TSE systems, Germany) filled with water (24±2° C.) and positioned underneath a wide-angled video camera to track animal. The 10 cm^2 perspex platform, lying 1 cm below the water surface, was placed in the centre of one of the four imaginary quadrants, which remained constant for all rats. The black Perspex used in the construction of the maze and platform offered no intramaze cues to guide escape behavior. By contrast, the training room offered several strong extramaze visual cues to aid the formation of the spatial map necessary for escape learning. An automated tracking system, [Videomot 2 (5.51), TSE systems, Germany] was employed. This program analyzes video images acquired via a digital camera and an image acquisition boards that determined path length, swim speed and the number of entries and duration of swim time spent in each quadrant of the water maze.

In the case of `COc1ccc(NS(=O)(=O)c2ccc(F)cc2)cc1NC1CCN(C)CC1` [Example 6, 4-Fluoro-N-[4-Methoxy-3-(1-methylpiperidin-4-ylamino)phenyl] benzenesulfonamide], the “Scopolamine Induced Reversal” value is reported as “≦3 mg/kg, p.o”.
With `COc1ccc(NS(=O)(=O)c2ccccc2Br)cc1NC1CCN(C)CC1` [Example 8, 2-Bromo-N-[4-Methoxy-3-(1-methylpiperidin-4-ylamino)phenyl] benzenesulfonamide] the “Scopolamine Induced Reversal” value was “≦3 mg/kg, p.o”.

Test system: not listed separately
Assay: Rodent Pharmacokinetic Study
Assay type: in vivo, Male wistar rats
Conditions: Wistar/Male rat, Intravenous, 10 mg/kg, 50% PEG-400 in water for injection
Experimental: Male wistar rats (230-280 grams) obtained from NIN (National Institute of Nutrition, Hyderabad, India) were used as an experimental animal.
Three to five animals were housed in each cage. Animals were kept fasted over night and maintained on a 12 hours light/dark cycle. […]
At each time point blood was collected by jugular vein. Plasma was stored frozen at −20° C. until analysis. The concentrations of the NCE compound in plasma were determined using LC-MS/MS method.
Schedule time points: Pre dose. 0.25, 0.5, 1, 1.5, 2, 3, 4, 6, 8, 10, 12 and 24 hours after dosing (n=3). The NCE compounds were quantified in plasma by validated LC-MS/MS method using solid phase extraction technique. NCE compounds were quantified in the calibration range of 2-2000 ng/mL in plasma. Study samples were analyzed using calibration samples in the batch and quality control samples spread across the batch.
Pharmacokinetic parameters Cmax, Tmax, AUCt, AUCinf, half life, volume of distribution, clearance, mean residence time and thereby oral bioavailability were calculated by non-compartmental model using software WinNonlin version 5.1.

Going from `COc1ccc(NS(=O)(=O)c2ccc(F)cc2)cc1NC1CCN(C)CC1` [Example 6, 4-Fluoro-N-[4-Methoxy-3-(1-methylpiperidin-4-ylamino)phenyl] benzenesulfonamide] to `COc1ccc(NS(=O)(=O)c2ccccc2Br)cc1NC1CCN(C)CC1` [Example 8, 2-Bromo-N-[4-Methoxy-3-(1-methylpiperidin-4-ylamino)phenyl] benzenesulfonamide], the AUCt rises from 4314 ± 967 ng·h/mL to 9919 ± 701 ng·h/mL (2.3-fold).

`COc1ccc(NS(=O)(=O)c2ccc(F)cc2)cc1NC1CCN(C)CC1` [Example 6, 4-Fluoro-N-[4-Methoxy-3-(1-methylpiperidin-4-ylamino)phenyl] benzenesulfonamide] and `COc1ccc(NS(=O)(=O)c2ccccc2Br)cc1NC1CCN(C)CC1` [Example 8, 2-Bromo-N-[4-Methoxy-3-(1-methylpiperidin-4-ylamino)phenyl] benzenesulfonamide] are the same in T1/2: 2.18 ± 1.29 h for the first, 2.18 ± 0.54 h for the second.

`COc1ccc(NS(=O)(=O)c2ccc(F)cc2)cc1NC1CCN(C)CC1` [Example 6, 4-Fluoro-N-[4-Methoxy-3-(1-methylpiperidin-4-ylamino)phenyl] benzenesulfonamide] and `COc1ccc(NS(=O)(=O)c2ccccc2Br)cc1NC1CCN(C)CC1` [Example 8, 2-Bromo-N-[4-Methoxy-3-(1-methylpiperidin-4-ylamino)phenyl] benzenesulfonamide] are within error of each other in Tmax: 0.14 ± 0.10 h for the first, 0.08 ± 0.0 h for the second.

Same assay, conditions: Wistar/Male rat, Intravenous, 10 mg/kg, 50% PEG-400 in water for injection, plasma

`COc1ccc(NS(=O)(=O)c2ccc(F)cc2)cc1NC1CCN(C)CC1` [Example 6, 4-Fluoro-N-[4-Methoxy-3-(1-methylpiperidin-4-ylamino)phenyl] benzenesulfonamide] and `COc1ccc(NS(=O)(=O)c2ccccc2Br)cc1NC1CCN(C)CC1` [Example 8, 2-Bromo-N-[4-Methoxy-3-(1-methylpiperidin-4-ylamino)phenyl] benzenesulfonamide] are within error of each other in Cmax: 2885 ± 401 ng/mL for the first, 2645 ± 154 ng/mL for the second.

Same assay, conditions: Wistar/Male rat, Oral, 10 mg/kg, 50% PEG-400 in water for injection

First: COc1ccc(NS(=O)(=O)c2ccc(F)cc2)cc1NC1CCN(C)CC1 [Example 6, 4-Fluoro-N-[4-Methoxy-3-(1-methylpiperidin-4-ylamino)phenyl] benzenesulfonamide]
Second: COc1ccc(NS(=O)(=O)c2ccccc2Br)cc1NC1CCN(C)CC1 [Example 8, 2-Bromo-N-[4-Methoxy-3-(1-methylpiperidin-4-ylamino)phenyl] benzenesulfonamide]
The AUCt of the first is 4.4-fold lower: 1421 ± 106 ng·h/mL for the first, 6222 ± 1025 ng·h/mL for the second.

`COc1ccc(NS(=O)(=O)c2ccc(F)cc2)cc1NC1CCN(C)CC1` [Example 6, 4-Fluoro-N-[4-Methoxy-3-(1-methylpiperidin-4-ylamino)phenyl] benzenesulfonamide] and `COc1ccc(NS(=O)(=O)c2ccccc2Br)cc1NC1CCN(C)CC1` [Example 8, 2-Bromo-N-[4-Methoxy-3-(1-methylpiperidin-4-ylamino)phenyl] benzenesulfonamide] are within error of each other in T1/2: 5.35 ± 3.65 h for the first, 5.40 ± 2.56 h for the second.

`COc1ccc(NS(=O)(=O)c2ccc(F)cc2)cc1NC1CCN(C)CC1` [Example 6, 4-Fluoro-N-[4-Methoxy-3-(1-methylpiperidin-4-ylamino)phenyl] benzenesulfonamide] and `COc1ccc(NS(=O)(=O)c2ccccc2Br)cc1NC1CCN(C)CC1` [Example 8, 2-Bromo-N-[4-Methoxy-3-(1-methylpiperidin-4-ylamino)phenyl] benzenesulfonamide] are within error of each other in Tmax: 2.17 ± 1.44 h for the first, 1.67 ± 1.15 h for the second.

Same assay, conditions: Wistar/Male rat, Oral, 10 mg/kg, 50% PEG-400 in water for injection, plasma

Going from `COc1ccc(NS(=O)(=O)c2ccc(F)cc2)cc1NC1CCN(C)CC1` [Example 6, 4-Fluoro-N-[4-Methoxy-3-(1-methylpiperidin-4-ylamino)phenyl] benzenesulfonamide] to `COc1ccc(NS(=O)(=O)c2ccccc2Br)cc1NC1CCN(C)CC1` [Example 8, 2-Bromo-N-[4-Methoxy-3-(1-methylpiperidin-4-ylamino)phenyl] benzenesulfonamide], the Cmax rises from 372 ± 85 ng/mL to 964 ± 110 ng/mL (2.6-fold).

Same assay, conditions: Wistar/Male rat, oral 10 mg/kg versus intravenous

Going from `COc1ccc(NS(=O)(=O)c2ccc(F)cc2)cc1NC1CCN(C)CC1` [Example 6, 4-Fluoro-N-[4-Methoxy-3-(1-methylpiperidin-4-ylamino)phenyl] benzenesulfonamide] to `COc1ccc(NS(=O)(=O)c2ccccc2Br)cc1NC1CCN(C)CC1` [Example 8, 2-Bromo-N-[4-Methoxy-3-(1-methylpiperidin-4-ylamino)phenyl] benzenesulfonamide], the Bioavailability rises from 34% to 63%.

Target: Human 5-HT6 Receptor (Homo sapiens, UniProt P50406)
Sequence (P50406 whole entry): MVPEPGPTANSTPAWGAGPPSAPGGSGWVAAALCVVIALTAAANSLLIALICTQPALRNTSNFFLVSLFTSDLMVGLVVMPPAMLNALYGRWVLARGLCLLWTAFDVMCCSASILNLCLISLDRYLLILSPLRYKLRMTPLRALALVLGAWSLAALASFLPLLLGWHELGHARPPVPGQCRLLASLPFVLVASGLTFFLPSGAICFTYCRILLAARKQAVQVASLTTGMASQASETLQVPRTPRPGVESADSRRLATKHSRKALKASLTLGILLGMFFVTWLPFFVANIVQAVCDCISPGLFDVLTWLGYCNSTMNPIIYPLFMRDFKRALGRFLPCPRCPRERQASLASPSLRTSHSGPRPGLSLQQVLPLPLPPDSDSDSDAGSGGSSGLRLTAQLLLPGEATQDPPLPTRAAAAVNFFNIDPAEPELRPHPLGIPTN
Assay: Binding Assay for Human 5-HT6 Receptor ([3H]LSD radioligand)
Conditions: 10 nM test compound; [3H]LSD 1.5 nM; human recombinant receptor in HEK293 cells
Experimental: Receptor source: Human recombinant expressed in HEK293 cells
Radioligand: [^3H]LSD (60-80 Ci/mmol)
Final ligand concentration— [1.5 nM]
Non-specific determinant: Methiothepin mesylate— [0.1 μM]
Reference compound: Methiothepin mesylate
Positive control: Methiothepin mesylate
Reactions were carried out in 50 μM TRIS-HCl (pH 7.4) containing 10 μM MgCl2, 0.5 mM EDTA for 60 minutes at 37° C. The reaction was terminated by rapid vacuum filtration onto glass fiber filters. Radioactivity trapped onto the filters was determined and compared to control values in order to ascertain any interactions of test compound(s) with the cloned serotonin 5-HT6 binding site.

Going from `COc1ccc(NS(=O)(=O)c2ccc(F)cc2)cc1NC1CCN(C)CC1` [Example 6, 4-Fluoro-N-[4-Methoxy-3-(1-methylpiperidin-4-ylamino)phenyl] benzenesulfonamide] to `COc1ccc(NS(=O)(=O)c2ccccc2Br)cc1NC1CCN(C)CC1` [Example 8, 2-Bromo-N-[4-Methoxy-3-(1-methylpiperidin-4-ylamino)phenyl] benzenesulfonamide], the “% Inhibition at 10 nM” value rises from 20.71% to 71.95%.

Same assay, conditions: 100 nM test compound; [3H]LSD 1.5 nM; human recombinant receptor in HEK293 cells

First: COc1ccc(NS(=O)(=O)c2ccc(F)cc2)cc1NC1CCN(C)CC1 [Example 6, 4-Fluoro-N-[4-Methoxy-3-(1-methylpiperidin-4-ylamino)phenyl] benzenesulfonamide]
Second: COc1ccc(NS(=O)(=O)c2ccccc2Br)cc1NC1CCN(C)CC1 [Example 8, 2-Bromo-N-[4-Methoxy-3-(1-methylpiperidin-4-ylamino)phenyl] benzenesulfonamide]
The “% Inhibition at 100 nM” value of the first is lower: 90.83% for the first, 99.38% for the second.

Same assay, conditions: 1000 nM test compound; [3H]LSD 1.5 nM; human recombinant receptor in HEK293 cells

Compared with `COc1ccc(NS(=O)(=O)c2ccc(F)cc2)cc1NC1CCN(C)CC1` [Example 6, 4-Fluoro-N-[4-Methoxy-3-(1-methylpiperidin-4-ylamino)phenyl] benzenesulfonamide], `COc1ccc(NS(=O)(=O)c2ccccc2Br)cc1NC1CCN(C)CC1` [Example 8, 2-Bromo-N-[4-Methoxy-3-(1-methylpiperidin-4-ylamino)phenyl] benzenesulfonamide] is higher in “% Inhibition at 1000 nM” value: 99.64% for the first, 100.63% for the second.

Test system: not listed separately
Assay: Rodent Brain Penetration Study
Assay type: in vivo, Male Wister rats
Conditions: Wistar/Male rat, Intravenous infusion, 1 mg/kg, brain/plasma
Experimental: Male Wister rats (230-280 grams) obtained from NIN (National Institute of Nutrition, Hyderabad, India) was used as an experimental animal. Three animals were housed in each cage. Animals were given water and food ad libitum throughout the experiment, and maintained on a 12 hours light/dark cycle.
Brain penetration was determined at steady state in rat. One day prior to dosing day, male wistar rats (225-250 grams) were anesthetized with halothane for surgical placement of jugular and femoral vein catheters. After surgery, the rats were housed in individual rat infusion cage connected with infusion components (Instech Solomon; Plymouth Meeting, Pa. USA) and allowed free access to food and water
NCE compound was dissolved in water and administered at a constant infusion rate (5 mL/kg/hr) over 6-10 hours at a target dose rate of 1.0 mg free base/kg/h. Blood samples were removed during the latter part of the infusion to confirm steady-state blood concentrations, brain and blood was collected and estimated. Animals will be sacrificed to collect the plasma and brain tissue and was homogenized. Plasma and Brain was stored frozen at −20° C. until analysis. The concentrations of the NCE compound in plasma and Brain were determined using LC-MS/MS method.
The NCE compounds were quantified in plasma and brain homogenate by validated LC-MS/MS method using solid phase extraction technique. NCE compounds were quantified in the calibration range of 1-500 ng/mL in plasma and brain homogenate. Study samples were analyzed using calibration samples in the batch and quality control samples spread across the batch. Extents of brain-blood ratio were calculated (Cb/Cp).

`COc1ccc(NS(=O)(=O)c2ccc(F)cc2)cc1NC1CCN(C)CC1` [Example 6, 4-Fluoro-N-[4-Methoxy-3-(1-methylpiperidin-4-ylamino)phenyl] benzenesulfonamide] and `COc1ccc(NS(=O)(=O)c2ccccc2Br)cc1NC1CCN(C)CC1` [Example 8, 2-Bromo-N-[4-Methoxy-3-(1-methylpiperidin-4-ylamino)phenyl] benzenesulfonamide] are within error of each other in “Steady State Brain Penetration (Cb/Cp)” value: 0.05 ± 0.01 for the first, 0.04 ± 0.01 for the second.
